In article PMC9120013, “Ribosome inhibition by C9ORF72-ALS/FTD-associated poly-PR and poly-GR proteins revealed by cryo-EM” (Nature Communications, 2022):
Ends that are not written are not given here.

How the values were obtained:
[1] = tested on: translation in E. coli cell lysates; assay: Nanoluciferase translation in E. coli cell lysate (NEBExpress); assay type: biochemical; settings: n=3
Method: E. coli cell lysates (NEBExpress, NEB) were used to investigate bacterial translation inhibition by GR20 and PR20. We monitored the translation of an in vitro transcribed mRNA encoding a Shine-Dalgarno sequence preceding the nanoluciferase (Promega) open reading frame. The mRNA was prepared by in vitro transcription of a PCR-template obtained by amplifying the nanoluciferase open reading frame from the plasmid described in reference with the following primers: T7 + SD-forward: […], based on the pet28a+ plasmid and reverse: […]. […] Then 1 μl of water or different concentrations (10-100 μM) of PR20 or GR20 or 200 μM erythromycin were added and the plate was incubated at 37 °C for 5 min inside of an Infinite m1000 pro microplate reader (Tecan). Next, the nanoluciferase mRNA was added to the final concentration of 20 ng/μl in a 10-μl reaction. Translation reactions were incubated at 37 °C for 20 min, luminescence of the samples was continuously measured by the microplate reader to record the time course of protein synthesis. Time progress curves, obtained in the experiments, were processed in MS Excel, and the rate of change of the relative light units between 100 and 200 s was measured, the mean and SEM of three experiments is reported in column graph in Supplementary Fig. 2a.

total HEK293 RNA = assay: DPR-induced RNA aggregation, turbidity OD600; assay type: physicochemical; settings: for visible opalescence / OD600 change: 10 µM; for OD600 change / optical density relative to RNA alone: 100 ng/μl HEK293 RNA; for optical density relative to RNA alone: 0.2 to 1 µM, 20 min, room temperature
Method: To test whether arginine-containing DPR proteins cause mRNA aggregation at the DPR concentrations sufficient to inhibit protein synthesis (0.2 and 1 μM), we measured turbidity (optical density at 600 nm; OD600; similarly to[41]) of the solutions containing 100 ng/μl total HEK293 RNA. We incubated RNA with PR20, GR20, GP20 (control), or water for 20 min at room temperature. […] Optical density was measured using NanoDrop One (Thermo Scientific, Waltham, MA, USA).

E. coli 70S ribosomes = assay: Kinetic peptidyl transfer (puromycin) assay on E. coli 70S ribosomes; assay type: biochemical; settings: 30 nM 70S, 50 µM puromycin, 37 °C; n = 2; read-out: apparent inhibition constant (Ki) of peptidyl transfer
Method: The effects of GRn or PRn on peptide bond formation in E. coli ribosome were tested in an in vitro assay that reacts the 70S ribosome loaded with [^35S]-fMet-tRNA^fMet in the P-site with puromycin, an A-site tRNA mimic, and measures the release of the resulting dipeptide containing formyl-methionine covalently bonded to puromycin, as described. E. coli tRNA^fMet (Chemical Block) was aminoacylated with [^35S]-N-formyl-L-methionine (Perkin Elmer) as described. 70S ribosomes were prepared from E. coli (MRE600) as described. 70S ribosomes were stored in the ribosome-storage buffer (20 mM Tris-HCl, pH 7.0; 100 mM NH4Cl; 20 mM MgCl2) at –80 °C. A model mRNA fragment, containing the Shine-Dalgarno sequence and a spacer to position the AUG codon in the P-site and the UUC codon in the A site (GGCAAGGAGGUAAAAAUGUUC AAAAAA), was synthesized by IDT. 70S•mRNA•fMet-tRNA^fMet complexes with GRn (where n = 4, 10 or 20) or PRn (where n = 4, 10, 20 or 40) were formed as follows. 330 nM 70S ribosomes were incubated with 11 µM mRNA in buffer containing 20 mM Tris-acetate (pH 7.0), 100 mM NH4OAc, 12 mM Mg(OAc)2, for 2 min at 37 °C. 730 nM [^35S]-fMet-tRNA^fMet was added and incubated for 5 min at 37 °C. The solution was diluted 9.6-fold with the same buffer, followed by addition of a GRn or PRn repeat peptide (22x relative to its final concentration). The complex was incubated for 5 min at 37 °C prior to addition of puromycin dissolved in the same buffer (see below).
(§1) The kinetics of puromycin reaction on the 70S or 80S ribosomes were recorded and analyzed essentially as described. An aliquot (4.5 μl) of the complex prior to addition of puromycin was quenched in 30 μl of saturated MgSO4 in 0.1 M NaOAc to represent the zero-time point. Five microliters of 500 µM puromycin (in the same buffer as that used for the ribosomal complex) was added to 45 μl of the complex to initiate the reaction, yielding estimated final concentrations: 30 nM for the ribosome, 1 µM mRNA, 66 nM [^35S]-fMet-tRNA^fMet, 50 µM puromycin, and varying concentrations of PRn and GRn peptides, from 30 nM to 2 μM. After 6, 15, 30, 90 s, and 5, 15, 30, 60, and (for slower reactions) 180 min, 5-μl aliquots were quenched in 30 μl of saturated MgSO4 in 0.1 M NaOAc. All quenched samples were extracted with 700 μl ethyl-acetate. 600 μl of the extract were mixed with 3.5 ml of Econo-Safe scintillation cocktail (RPI), and the amount of released [^35S]-labeled dipeptide was measured for each time point using a scintillation counter (Beckman Coulter, Inc.).
(§2) All time progress curves were recorded in duplicates, using independently prepared 70S or 80S complexes. Reaction rates were calculated using single-exponential or double-exponential (80S complexes) regressions for different concentrations of PRn and GRn using GraphPad Prism 8. Hyperbola fitting in Gnuplot was used to derive apparent Ki-values.

rabbit 80S ribosomes = assay: Kinetic peptidyl transfer (puromycin) assay on rabbit 80S ribosomes; assay type: biochemical
From the text: To test the effects of PR20 on the mammalian peptidyl transferase, 80S ribosomes were purified from rabbit reticulocyte lysate (Green Hectares) and dissociated into 40S and 60S subunits as described in the section entitled “Cryo-EM complex of mammalian 80S ribosome with PR20”. A model leaderless mRNA fragment placing the AUG codon in the P-site and the UUC codon in the A site (CCAC AUG UUC CCCCCCCCCCCCCCCCCC), was synthesized by IDT. The 80S•mRNA•fMet-tRNA^fMet complex with PRn (where n = 10, 20, or 40) or GR20 was assembled as follows. one micrometer 60S subunit was mixed with the DPR (starting with the initial DPR concentration of 33x relative to its final concentration in the reaction) in Assembly Buffer containing 20 mM Tris-acetate (pH 7.0), 100 mM KOAc, 10 mM Mg(OAc)2, and the mixture was incubated for 5 min at 30 °C. […] 1095 nM [^35S]-fMet-tRNA^fMet and the 60S solution were added (0.5 volumes of the 40S solution), resulting in the following concentrations: 330 nM 60S, 400 nM 40S, 730 nM tRNA, 11 µM mRNA and 11x of final concentration of a DPR in the buffer (20 mM Tris-acetate (pH 7.0), 100 mM KOAc, 10 mM Mg(OAc)2). The solution was incubated for 5 min at 30 °C. The solution was diluted ten times with the same buffer, then puromycin (prepared in the same buffer) was added and time progress curves were recorded.
as §1, §2

Compound | concentration needed to inhibit translation in E. coli lysate [1] [µM] | visible opalescence (total HEK293 RNA) | OD600 change (total HEK293 RNA) | optical density relative to RNA alone (total HEK293 RNA) | Ki (E. coli 70S ribosomes) [nM] | concentration at which inhibition of peptidyl transfer starts (rabbit 80S ribosomes; 30 nM 80S) | effect on peptidyl transfer on rabbit 80S (rabbit 80S ribosomes; 2 µM, n=2)
PRPRPRPRPRPRPRPRPRPRPRPRPRPRPRPRPRPRPRPR [PR20] | ≥ 5 | did not induce visible opalescence | increased OD600 | did not increase optical density | 44 ± 9 | ~ 100 nM | 
N=C(N)NCCC[C@H](NC(=O)CNC(=O)[C@H](CCCNC(=N)N)NC(=O)CNC(=O)[C@H](CCCNC(=N)N)NC(=O)CNC(=O)[C@H](CCCNC(=N)N)NC(=O)CNC(=O)[C@H](CCCNC(=N)N)NC(=O)CNC(=O)[C@H](CCCNC(=N)N)NC(=O)CNC(=O)[C@H](CCCNC(=N)N)NC(=O)CNC(=O)[C@H](CCCNC(=N)N)NC(=O)CNC(=O)[C@H](CCCNC(=N)N)NC(=O)CNC(=O)[C@H](CCCNC(=N)N)NC(=O)CNC(=O)[C@H](CCCNC(=N)N)NC(=O)CNC(=O)[C@H](CCCNC(=N)N)NC(=O)CNC(=O)[C@H](CCCNC(=N)N)NC(=O)CNC(=O)[C@H](CCCNC(=N)N)NC(=O)CNC(=O)[C@H](CCCNC(=N)N)NC(=O)CNC(=O)[C@H](CCCNC(=N)N)NC(=O)CNC(=O)[C@H](CCCNC(=N)N)NC(=O)CNC(=O)[C@H](CCCNC(=N)N)NC(=O)CNC(=O)[C@H](CCCNC(=N)N)NC(=O)CNC(=O)[C@H](CCCNC(=N)N)NC(=O)CN)C(=O)O [GR20] | > 10 | did not induce visible opalescence | increased OD600 | did not increase optical density | 164 ± 31 |  | inhibits peptidyl transfer
